Test results published in ChEMBL document CHEMBL5465560, “Selectivity Literature for EUbOPEN Chemogenomic Library” (2024).

Columns and labels:
[1] = target: Serine/threonine-protein kinase 32C (Homo sapiens) (UniProt Q86UX6); details: at 10 µM
[2] = system: Tyrosine-protein kinase ABL1 (Homo sapiens), P00519 [E255K]; assay: (§1) Selectivity interaction (KinomeScan (DiscoverX)) EUB0001049a ABL1; details: at 1 µM
[3] = system: Tyrosine-protein kinase ABL1 (Homo sapiens), P00519 [F317I]; assay: as §1; details: at 1 µM
[4] = system: Tyrosine-protein kinase ABL1 (Homo sapiens), P00519 [F317L]; assay: as §1; details: at 1 µM
[5] = system: Tyrosine-protein kinase ABL1 (Homo sapiens), P00519 [H396P]; assay: as §1; details: at 1 µM
[6] = system: Tyrosine-protein kinase ABL1 (Homo sapiens), P00519 [M351T]; assay: as §1; details: at 1 µM
[7] = system: Tyrosine-protein kinase ABL1 (Homo sapiens), P00519 [Q252H]; assay: as §1; details: at 1 µM
[8] = system: Tyrosine-protein kinase ABL1 (Homo sapiens), P00519 [T315I]; assay: as §1; details: at 1 µM
[9] = system: Tyrosine-protein kinase ABL1 (Homo sapiens), P00519 [Y253F]; assay: as §1; details: at 1 µM
[10] = target: Tyrosine-protein kinase ABL1 (Homo sapiens, UniProt P00519); assay: as §1; details: at 1 µM
[11] = target: Tyrosine-protein kinase Fgr (Homo sapiens) (UniProt P09769); assay: Selectivity interaction (ActivX KiNativ screen (kinase selectivity in THP-1 cell lysates)) EUB0000639a FGR; format: subcellular; details: lysate
[12] = target: Vascular endothelial growth factor receptor 2 (Homo sapiens, UniProt P35968); assay: Selectivity interaction (CEREP Wide Ligand Profile screen (panel of receptors, ion channels, and transporters)) EUB0001542aTs KDR
[13] = target: Tyrosine-protein kinase Srms (Homo sapiens) (UniProt Q9H3Y6); assay: Selectivity interaction (KinomeScan (DiscoverX)) EUB0000695a SRMS; details: at 100 nM
[14] = target: Microtubule-associated serine/threonine-protein kinase 1 (Homo sapiens) (UniProt Q9Y2H9); assay: Selectivity interaction (KinomeScan (DiscoverX)) EUB0000092b MAST1; details: at 10 µM
[15] = target: Tyrosine-protein kinase Yes (Homo sapiens) (UniProt P07947); assay: Selectivity interaction (ActivX KiNativ screen (ex vivo kinase selectivity in human PBMCs)) EUB0001619a YES1; format: cell-based; details: PBMC, at 1 µM
[16] = target: T1, Ephrin type-B receptor 3 (Homo sapiens) (UniProt P54753); assay: Selectivity interaction (Kinase panel (DSF assay)) EUB0001559a EPHB3
T1 sequence (whole entry): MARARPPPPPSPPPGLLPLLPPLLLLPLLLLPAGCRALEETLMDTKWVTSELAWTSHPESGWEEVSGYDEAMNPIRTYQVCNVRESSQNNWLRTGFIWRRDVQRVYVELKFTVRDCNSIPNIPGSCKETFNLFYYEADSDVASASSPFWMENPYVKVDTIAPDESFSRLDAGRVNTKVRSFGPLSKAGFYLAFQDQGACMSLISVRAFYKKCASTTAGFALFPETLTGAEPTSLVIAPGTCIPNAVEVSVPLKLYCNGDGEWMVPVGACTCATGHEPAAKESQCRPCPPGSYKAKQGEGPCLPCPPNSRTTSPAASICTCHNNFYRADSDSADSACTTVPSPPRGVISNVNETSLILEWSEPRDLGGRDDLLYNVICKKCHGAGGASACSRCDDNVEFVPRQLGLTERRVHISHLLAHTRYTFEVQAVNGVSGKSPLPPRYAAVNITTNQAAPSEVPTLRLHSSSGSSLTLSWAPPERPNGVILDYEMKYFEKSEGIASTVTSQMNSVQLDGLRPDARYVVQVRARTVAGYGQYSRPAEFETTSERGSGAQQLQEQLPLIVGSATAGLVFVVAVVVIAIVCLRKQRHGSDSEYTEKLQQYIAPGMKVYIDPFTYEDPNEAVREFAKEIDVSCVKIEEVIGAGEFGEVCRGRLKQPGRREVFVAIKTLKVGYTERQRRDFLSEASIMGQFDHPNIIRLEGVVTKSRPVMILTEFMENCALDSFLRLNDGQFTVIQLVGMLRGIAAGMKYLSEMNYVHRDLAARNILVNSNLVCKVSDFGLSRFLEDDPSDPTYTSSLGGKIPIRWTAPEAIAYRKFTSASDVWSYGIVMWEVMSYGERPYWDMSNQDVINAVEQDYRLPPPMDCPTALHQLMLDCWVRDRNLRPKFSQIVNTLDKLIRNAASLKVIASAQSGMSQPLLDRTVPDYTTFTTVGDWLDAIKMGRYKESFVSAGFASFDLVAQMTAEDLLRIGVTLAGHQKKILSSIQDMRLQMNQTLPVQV

[17] = target: Ephrin type-A receptor 4 (Homo sapiens, UniProt P54764); assay: Selectivity interaction (SelectScreen profiling (Invitrogen)) EUB0000607a EPHA4; details: at 2 µM
Ephrin type-A receptor 4, sequence (P54764 whole entry): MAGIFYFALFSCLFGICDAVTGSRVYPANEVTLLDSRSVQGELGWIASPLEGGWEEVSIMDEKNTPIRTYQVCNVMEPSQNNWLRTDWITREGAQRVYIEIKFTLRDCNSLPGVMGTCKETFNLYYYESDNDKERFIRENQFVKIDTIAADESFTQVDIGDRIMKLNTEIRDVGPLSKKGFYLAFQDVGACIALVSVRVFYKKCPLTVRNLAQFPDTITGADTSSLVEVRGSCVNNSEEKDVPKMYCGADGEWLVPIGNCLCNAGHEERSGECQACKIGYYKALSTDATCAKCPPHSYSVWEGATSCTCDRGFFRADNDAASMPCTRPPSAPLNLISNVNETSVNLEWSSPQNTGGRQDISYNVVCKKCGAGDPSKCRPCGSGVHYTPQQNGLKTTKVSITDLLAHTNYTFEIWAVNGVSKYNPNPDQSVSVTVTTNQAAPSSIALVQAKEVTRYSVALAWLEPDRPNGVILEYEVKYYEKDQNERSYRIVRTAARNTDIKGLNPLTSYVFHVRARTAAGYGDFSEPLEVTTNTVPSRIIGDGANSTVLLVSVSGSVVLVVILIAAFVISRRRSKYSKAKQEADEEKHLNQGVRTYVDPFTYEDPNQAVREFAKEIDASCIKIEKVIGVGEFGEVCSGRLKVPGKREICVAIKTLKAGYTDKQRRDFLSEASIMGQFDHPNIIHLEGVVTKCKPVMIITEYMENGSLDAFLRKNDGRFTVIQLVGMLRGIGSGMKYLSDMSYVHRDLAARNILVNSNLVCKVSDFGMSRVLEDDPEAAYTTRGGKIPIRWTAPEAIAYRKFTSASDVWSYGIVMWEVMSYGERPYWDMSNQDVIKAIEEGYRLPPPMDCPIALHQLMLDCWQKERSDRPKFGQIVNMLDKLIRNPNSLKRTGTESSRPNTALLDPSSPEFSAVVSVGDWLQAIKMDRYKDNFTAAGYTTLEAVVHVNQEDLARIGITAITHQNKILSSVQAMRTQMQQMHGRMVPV

Tyrosine-protein kinase Fgr (Homo sapiens), sequence (P09769 2-529 limits assumed): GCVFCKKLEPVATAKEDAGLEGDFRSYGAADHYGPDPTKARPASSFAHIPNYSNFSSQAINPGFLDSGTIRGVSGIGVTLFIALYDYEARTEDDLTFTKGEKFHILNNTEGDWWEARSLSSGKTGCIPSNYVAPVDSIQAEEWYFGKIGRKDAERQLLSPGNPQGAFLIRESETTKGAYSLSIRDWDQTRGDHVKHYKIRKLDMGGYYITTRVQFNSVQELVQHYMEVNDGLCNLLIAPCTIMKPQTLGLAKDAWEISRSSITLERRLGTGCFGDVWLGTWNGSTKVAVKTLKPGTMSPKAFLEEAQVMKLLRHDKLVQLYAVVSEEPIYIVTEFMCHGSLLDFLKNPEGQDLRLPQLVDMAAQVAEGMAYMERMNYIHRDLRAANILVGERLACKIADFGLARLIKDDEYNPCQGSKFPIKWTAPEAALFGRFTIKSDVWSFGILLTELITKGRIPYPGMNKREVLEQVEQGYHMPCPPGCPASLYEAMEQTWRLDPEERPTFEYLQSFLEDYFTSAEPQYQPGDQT
Vascular endothelial growth factor receptor 2, sequence (P35968 whole entry): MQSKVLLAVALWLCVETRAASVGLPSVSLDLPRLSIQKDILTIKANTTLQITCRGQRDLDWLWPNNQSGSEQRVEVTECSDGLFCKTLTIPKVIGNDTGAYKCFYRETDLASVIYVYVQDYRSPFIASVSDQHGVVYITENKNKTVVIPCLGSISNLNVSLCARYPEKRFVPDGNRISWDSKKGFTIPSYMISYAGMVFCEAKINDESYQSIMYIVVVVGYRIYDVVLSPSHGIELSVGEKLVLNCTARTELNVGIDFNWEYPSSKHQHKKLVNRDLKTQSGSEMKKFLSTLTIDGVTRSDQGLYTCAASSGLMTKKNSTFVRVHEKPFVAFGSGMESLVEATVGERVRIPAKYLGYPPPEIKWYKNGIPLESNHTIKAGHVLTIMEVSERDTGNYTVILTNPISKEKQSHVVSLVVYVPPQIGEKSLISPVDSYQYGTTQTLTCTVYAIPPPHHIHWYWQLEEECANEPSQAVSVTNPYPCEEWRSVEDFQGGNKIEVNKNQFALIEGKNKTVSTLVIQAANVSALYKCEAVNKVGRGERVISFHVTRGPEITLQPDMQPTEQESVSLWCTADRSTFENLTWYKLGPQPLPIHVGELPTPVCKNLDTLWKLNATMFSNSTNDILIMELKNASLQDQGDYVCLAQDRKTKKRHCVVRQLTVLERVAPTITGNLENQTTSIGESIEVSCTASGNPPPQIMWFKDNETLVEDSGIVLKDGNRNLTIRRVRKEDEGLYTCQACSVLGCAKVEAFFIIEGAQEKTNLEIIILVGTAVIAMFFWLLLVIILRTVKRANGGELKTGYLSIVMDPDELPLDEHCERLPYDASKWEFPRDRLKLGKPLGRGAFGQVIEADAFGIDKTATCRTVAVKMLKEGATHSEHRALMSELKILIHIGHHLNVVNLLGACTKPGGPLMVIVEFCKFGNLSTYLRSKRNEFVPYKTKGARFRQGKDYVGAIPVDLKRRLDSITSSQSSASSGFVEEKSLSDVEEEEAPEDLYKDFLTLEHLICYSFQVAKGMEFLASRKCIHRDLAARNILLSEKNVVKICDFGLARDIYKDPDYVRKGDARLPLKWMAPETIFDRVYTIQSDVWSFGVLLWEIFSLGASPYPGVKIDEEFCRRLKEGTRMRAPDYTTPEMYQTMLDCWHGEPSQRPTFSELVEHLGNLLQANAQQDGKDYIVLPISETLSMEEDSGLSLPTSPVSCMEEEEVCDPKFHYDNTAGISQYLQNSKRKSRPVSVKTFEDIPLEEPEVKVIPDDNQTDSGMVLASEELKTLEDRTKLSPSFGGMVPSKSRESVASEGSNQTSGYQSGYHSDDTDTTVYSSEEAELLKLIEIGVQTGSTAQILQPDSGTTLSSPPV
Tyrosine-protein kinase Srms (Homo sapiens), sequence (Q9H3Y6 whole entry): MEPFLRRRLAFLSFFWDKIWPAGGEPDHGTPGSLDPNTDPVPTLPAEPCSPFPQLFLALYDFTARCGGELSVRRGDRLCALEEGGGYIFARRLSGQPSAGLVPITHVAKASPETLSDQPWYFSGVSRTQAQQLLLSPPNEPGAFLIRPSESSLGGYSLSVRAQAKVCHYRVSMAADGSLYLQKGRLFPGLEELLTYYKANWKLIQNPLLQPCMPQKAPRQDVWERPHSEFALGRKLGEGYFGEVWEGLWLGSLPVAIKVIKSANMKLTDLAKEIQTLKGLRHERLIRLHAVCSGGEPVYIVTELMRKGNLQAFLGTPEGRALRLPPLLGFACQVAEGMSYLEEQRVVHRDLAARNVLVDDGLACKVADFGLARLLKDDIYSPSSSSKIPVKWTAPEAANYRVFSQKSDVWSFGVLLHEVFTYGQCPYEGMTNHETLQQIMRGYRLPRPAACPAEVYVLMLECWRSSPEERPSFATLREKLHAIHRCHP
Serine/threonine-protein kinase 32C (Homo sapiens), sequence (Q86UX6 whole entry): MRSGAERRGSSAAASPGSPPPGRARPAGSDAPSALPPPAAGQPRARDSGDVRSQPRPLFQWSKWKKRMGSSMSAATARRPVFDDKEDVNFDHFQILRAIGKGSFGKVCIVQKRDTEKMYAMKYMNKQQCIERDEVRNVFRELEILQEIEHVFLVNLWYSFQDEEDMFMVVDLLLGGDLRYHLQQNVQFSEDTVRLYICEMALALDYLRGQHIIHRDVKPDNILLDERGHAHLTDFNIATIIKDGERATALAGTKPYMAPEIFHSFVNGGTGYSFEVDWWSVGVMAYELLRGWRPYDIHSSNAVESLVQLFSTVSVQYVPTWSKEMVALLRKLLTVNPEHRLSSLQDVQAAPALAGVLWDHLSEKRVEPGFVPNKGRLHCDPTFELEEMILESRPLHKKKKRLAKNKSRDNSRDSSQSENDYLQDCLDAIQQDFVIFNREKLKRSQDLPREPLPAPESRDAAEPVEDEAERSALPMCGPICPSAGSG
Tyrosine-protein kinase Yes (Homo sapiens), sequence (P07947 2-543 limits assumed): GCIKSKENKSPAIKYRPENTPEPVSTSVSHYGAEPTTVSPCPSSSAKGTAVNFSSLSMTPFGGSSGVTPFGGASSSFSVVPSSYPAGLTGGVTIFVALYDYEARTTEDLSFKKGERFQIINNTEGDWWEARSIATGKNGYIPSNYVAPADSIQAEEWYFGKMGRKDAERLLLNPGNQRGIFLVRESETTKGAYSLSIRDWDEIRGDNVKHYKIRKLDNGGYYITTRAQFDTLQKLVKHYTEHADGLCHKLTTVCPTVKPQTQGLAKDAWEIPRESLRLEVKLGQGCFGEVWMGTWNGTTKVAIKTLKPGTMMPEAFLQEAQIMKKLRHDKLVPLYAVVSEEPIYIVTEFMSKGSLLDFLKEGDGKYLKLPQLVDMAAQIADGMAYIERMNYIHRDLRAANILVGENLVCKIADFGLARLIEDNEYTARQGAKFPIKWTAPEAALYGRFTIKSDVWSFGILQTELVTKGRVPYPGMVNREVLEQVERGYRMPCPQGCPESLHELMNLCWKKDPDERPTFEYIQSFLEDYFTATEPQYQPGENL

Cc1cc([C@@H](C)Nc2ccccc2C(=O)O)c2nc(N3CCOCC3)cc(=O)n2c1 [AZD-6482]
% of control [1]: 82%

COc1cc(Nc2nc(C)cc(-c3cnn4nc(OC)ccc34)n2)cc(C(F)(F)F)c1
% of control [2]: 86%
% of control [3]: 97%
% of control [4]: 92%
% of control [5]: 64%
% of control [6]: 99%
% of control [7]: 68%
% of control [8]: 75%
% of control [9]: 70%
% of control [10]: 63%

CC[C@@H]1[C@H](F)C(=O)N[C@@H]1COc1nccc2cc(C(N)=O)c(OC)cc12 [ZIMLOVISERTIB]
% of inhibition ([11]; at 0.01 µM): -11.8%
% of inhibition ([11]; at 0.04 µM): -4.6%
% of inhibition ([11]; at 0.2 µM): -12.7%
% of inhibition ([11]; at 1 µM): -24.1%
% of inhibition ([11]; at 5 µM): -17.9%

Cn1cc(Nc2nccc(N3CC4CCC(C3)N4C(=O)[C@@H]3CC3(F)F)n2)cn1
IC50 [12]: 1600 nM

Cc1cc(F)c(C(=O)Nc2cccc(-c3nncn3C(C)C)n2)cc1-n1cnc(C2CC2)c1
% of control [13]: 100%

CCC(=O)N1CCN(c2ccc(-n3c(=O)ccc4cnc5ccc(-c6cnc7ccccc7c6)cc5c43)cc2C(F)(F)F)CC1
% of control [14]: 93%

N#Cc1cccc(-c2c[nH]c3ncnc(N4CCOCC4)c23)c1
% of inhibition [15]: -9%

CN(C(=O)c1cnn2cccnc12)c1cc2c(cc1N1CCOCC1)C(=O)N(C[C@@H](F)C(C)(C)O)C2
dTM [16]: 0 K

CNC(=O)Nc1ccc(-c2nc(N3CC4CCC(C3)O4)c3cnn(C4CCC5(CC4)OCCO5)c3n2)cc1
% of inhibition [17]: -1%
